Test results published in PMC10380083, “Synthesis of Prostate-Specific Membrane Antigen-Targeted Bimodal Conjugates of Cytotoxic Agents and Antiandrogens and Their Comparative Assessment with Monoconjugates” (International Journal of Molecular Sciences, 2023).
Like-named read-outs stand apart in the source and are kept apart here. *1 amine or outer side, *2 acyl side, *3 side chain or, on linkers, in order; H or OH if unused. Where a SMILES comes first, the peptide text is derived from it. [ ]: non-standard residue; d: D form. The star is where a group is joined. GluureaLys(ε-3-ClBenzyl) = O=C(O)CC[C@H](NC(=O)N[C@@H](CCCCN(Cc1cccc(Cl)c1)*)C(=O)O)C(=O)O; X3 = CC1(C)C(=O)N(c2ccc(C#N)c(C(F)(F)F)c2)C(=S)N1c1ccc(C(=O)*)c(F)c1; Dolaproine = CO[C@@H]([C@@H]1CCCN1)[C@@H](C)C(=O)O; Dil = CC[C@H](C)[C@H](NC)[C@@H](CC(=O)O)OC; X2 = O=C(CCCc1cn(CCCN[*:1])nn1)[*:2]; PABC = O=C(OCc1ccc(N[*:1])cc1)[*:2]; X1 = C[C@@H](N*)[C@@H](O)c1ccccc1; Cit = NC(=O)NCCC[C@H](N)C(=O)O; Suc = O=C(CCC(=O)[*:2])[*:1]; NMeV = CN[C@H](C(=O)O)C(C)C; Ahx = NCCCCCC(=O)O

Experiments:
[1] = test system: 22Rv1 human prostate carcinoma xenograft; conditions: 22Rv1 xenograft; for tumor volume V±m: i.v. triple injection, single dose 132.3 nM/kg; for Tumor growth inhibition: i.v. 132.3 nM/kg three times
Experimental: (§1) We carried out in vivo studies of the efficacy of the obtained bimodal conjugates. […] Also, conjugate I (Figure 5) was used as a reference compound. An isotonic (0.9%) sodium chloride solution was used as a negative control. Studies were carried out in xenograft models of 22Rv1 human prostate carcinoma and PC-3 prostate adenocarcinoma in immunodeficient Balb/c nude mice (male).
(§2) Two cell lines were used: human prostate carcinoma 22Rv1 and prostate adenocarcinoma PC-3 (ATCC collection). Cells were cultured in 75 cm^2 vials (Costar, Washington, DC, USA) in RPMI-1640 medium (PanEco, Russia) with the addition of 2 mM L-glutamine (PanEco, Russia) and 10% fetal calf serum (HyClone, Logan, UT, USA) under standard conditions of cultivation (in a humidified atmosphere at 37 °C and 5% CO2). Cells of 6–10 passages were used to inoculate the animals. Cell suspension was prepared with a concentration of 5 × 10^6 cells in 0.05 mL of the 22Rv1 medium and in 0.1 mL of the PC-3 medium. 22Rv1 cells were inoculated into animals in Matrigel (BD Matrigel Basement Membrane Matrix, BD Biosciences, San Jose, CA, USA). Manipulations with Matrigel were performed on a refrigerated plate using precooled materials, tubes and instrumentation. For animal administration, 50 μL of the cell suspension (5 × 10^6 cells) was transferred to a chilled tube containing 50 μL of Matrigel; after mixing, the cellular material (final volume of 100 μL) was injected subcutaneously into the groin area of the animal. To obtain subcutaneous xenograft PC-3, a 5 × 10^6 suspension of tumor cells was inoculated subcutaneously into the inguinal cavity of male mice in a volume of 0.1 mL.
(§3) To study the antitumor efficacy, conjugates were administered intravenously at a dose of 132.3 nM/kg to tumor-bearing mice three times at five-day intervals; administration was started 7−8 days after cell inoculation, and the tumor size was 70−90 mm^3. As a control substance, 0.9% sodium chloride solution was used. Experimental groups included five animals each. […] The mixture was dissolved in DMSO (5% of final solution) and diluted with hemodesum (30% low-molecular-weight polyvinylpyrrolidone (Mw = 8000 ± 200) saline infusion solution). The presence of tumors and their sizes, as well as the body weights of the mice, were recorded every five days during the observation of the animals. The antitumor effect was assessed by comparing the tumor volumes in the experimental and control groups as well as the amount of tumor growth inhibition (TGI, %).
(§4) Tumor volume was calculated using Formula (1):V = d1 × d2 × d3 × 0.52(1) where d1, d2 and d3 are the three mutually perpendicular dimensions of the tumor. […]
(§5) 3.2.1. In vivo evaluation of antitumor efficacy […]
(§6) intravenously at a dose of 132.3 nM/kg to tumor-bearing mice three times at 5-day intervals, the administration was started 7-8 days after cell inoculation to animals, tumor size was 70-90 mm3.
(§7) A 0.9% sodium chloride solution was used as a control substance. The experimental groups […]
(§8) The presence of tumor masses and their size, as well as the body weight of the mice, were recorded every 5 days during observation. In accordance with humane principles, animals were euthanized by placing the mice in a CO2 inhalation chamber (ZOONLAB GmbH, Germany).

[2] = test system: PC-3 prostate adenocarcinoma xenograft; conditions: PC-3 xenograft; for tumor volume V±m: i.v. triple injection, single dose 132.3 nM/kg; for Tumor growth inhibition: i.v. 132.3 nM/kg three times
Experimental: as §1, §2, §3, §4, §5, §6, §7, §8

[3] = Body weight, general condition and mortality in the antitumor efficacy study; conditions: i.v. 132.3 nM/kg x3
Experimental: Animal body weight data are presented in Table S2 in the electronic supplementary materials.
as §3, with “%). […]” for “%).”
as §5, §6, §7, §8
Conjugate Method of injection Dose Number of animals 22Rv1 PC-3 […]
3.4. In vivo Efficacy Evaluation
Days after tumor implantation / mass± error, g
Conjugate 7 day 12 day 17 day […]
injection) injection) injection)
Human prostate carcinoma 22Rv1
Human prostate adenocarcinoma PC-3
Table S3. Tumor growth dynamics of 22Rv1 and PC-3 in mice with intravenous triple injection of […]
ate Days after tumor implantation / V±m, mm3

[4] = 7 day after tumor implantation (1st injection)
[5] = 12 day after tumor implantation (2nd injection)
[6] = 33 day after tumor implantation
[7] = 37 day after tumor implantation
[8] = days after the start of treatment: 1
[9] = days after the start of treatment: 5
[10] = days after the start of treatment: 10
[11] = days after the start of treatment: 16
[12] = days after the start of treatment: 20

CC[C@H](C)[C@@H]([C@@H](CC(=O)N1CCC[C@H]1[C@H](OC)[C@@H](C)C(=O)N[C@H](C)[C@@H](O)c1ccccc1)OC)N(C)C(=O)[C@@H](NC(=O)[C@H](C(C)C)N(C)C(=O)OCc1ccc(NC(=O)[C@H](CCCNC(N)=O)NC(=O)[C@@H](NC(=O)CCCc2cn(CCCNC(=O)[C@H](CCCCNC(=O)c3ccc(N4C(=S)N(c5ccc(C#N)c(C(F)(F)F)c5)C(=O)C4(C)C)cc3F)NC(=O)[C@H](Cc3ccc(O)cc3)NC(=O)[C@H](Cc3ccccc3)NC(=O)CCC(=O)NCCCCCC(=O)N(CCCC[C@H](NC(=O)N[C@@H](CCC(=O)O)C(=O)O)C(=O)O)Cc3cccc(Cl)c3)nn2)C(C)C)cc1)C(C)C [compound 15] ({GluureaLys(ε-3-ClBenzyl)-Ahx-Suc}-FYK(X3)[X2]V[Cit][PABC][NMeV]V[Dil][Dolaproine]-X1)
tumor volume V±m [1, 4]: 73.3±8.8 mm3
tumor volume V±m [1, 5]: 64.7±15.3 mm3
tumor volume V±m ([1]; 17 day after tumor implantation (3rd injection)): 76.1±46.5 mm3
tumor volume V±m ([1]; 22 day after tumor implantation): 171.6 mm3
tumor volume V±m [1, 6]: 650.1 mm3
tumor volume V±m [1, 7]: 988.7 mm3
Tumor growth inhibition [1, 8]: 64.5%
Tumor growth inhibition [1, 9]: 67.6%
Tumor growth inhibition [1, 10]: 71.3%
Tumor growth inhibition [1, 11]: 67.9%
Tumor growth inhibition [1, 12]: 65.4%
tumor volume V±m [2, 4]: 83.1±6.8 mm3
tumor volume V±m [2, 5]: 117.6 mm3
tumor volume V±m ([2]; 27 day after tumor implantation): 534.3 mm3
tumor volume V±m [2, 6]: 819.8 mm3
tumor volume V±m [2, 7]: 1318.4 mm3
Tumor growth inhibition [2, 8]: 20.5%
Tumor growth inhibition [2, 9]: 18.5%
Tumor growth inhibition [2, 10]: 36.5%
Tumor growth inhibition [2, 11]: 39.7%
Tumor growth inhibition [2, 12]: 51.7%
TGI, did not exceed ([2]; i.v. 132.3 nM/kg three times at five-day intervals, male Balb/c nude mice): ≤ 51.7%
body weight, mass ± error ([3]; 22Rv1 xenograft mice, 7 day after tumor implantation (1st injection)): 25.2 ± 1.2 g
body weight, mass ± error ([3]; 22Rv1 xenograft mice, 12 day after tumor implantation (2nd injection)): 25.0 ± 1.2 g
body weight, mass ± error ([3]; 22Rv1 xenograft mice, 17 day after tumor implantation (3rd injection)): 25.0 ± 1.2 g
body weight, mass ± error ([3]; 22Rv1 xenograft mice, 22 day after tumor implantation): 25.2 ± 1.3 g
body weight, mass ± error ([3]; 22Rv1 xenograft mice, 27 day after tumor implantation): 25.1 ± 1.3 g
body weight, mass ± error ([3]; 22Rv1 xenograft mice, 33 day after tumor implantation): 25.2 ± 1.3 g
body weight, mass ± error ([3]; 22Rv1 xenograft mice, 37 day after tumor implantation): 25.5 ± 1.5 g
body weight, mass ± error ([3]; PC-3 xenograft mice, 7 day after tumor implantation (1st injection)): 23.9 ± 2.1 g
body weight, mass ± error ([3]; PC-3 xenograft mice, 12 day after tumor implantation (2nd injection)): 23.8 ± 2.1 g
body weight, mass ± error ([3]; PC-3 xenograft mice, 17 day after tumor implantation (3rd injection)): 24.0 ± 2.2 g
body weight, mass ± error ([3]; PC-3 xenograft mice, 22 day after tumor implantation): 24.4 ± 2.3 g
body weight, mass ± error ([3]; PC-3 xenograft mice, 27 day after tumor implantation): 24.8 ± 2.1 g
body weight, mass ± error ([3]; PC-3 xenograft mice, 33 day after tumor implantation): 24.9 ± 1.8 g
body weight, mass ± error ([3]; PC-3 xenograft mice, 37 day after tumor implantation): 25.1 ± 1.9 g
